Target: Receptor-type tyrosine-protein phosphatase F (Homo sapiens, UniProt P10586)
Test: Inhibition of PTP-LAR
Details: not given; call rule not given here

Receptor-type tyrosine-protein phosphatase F, sequence (P10586 whole entry): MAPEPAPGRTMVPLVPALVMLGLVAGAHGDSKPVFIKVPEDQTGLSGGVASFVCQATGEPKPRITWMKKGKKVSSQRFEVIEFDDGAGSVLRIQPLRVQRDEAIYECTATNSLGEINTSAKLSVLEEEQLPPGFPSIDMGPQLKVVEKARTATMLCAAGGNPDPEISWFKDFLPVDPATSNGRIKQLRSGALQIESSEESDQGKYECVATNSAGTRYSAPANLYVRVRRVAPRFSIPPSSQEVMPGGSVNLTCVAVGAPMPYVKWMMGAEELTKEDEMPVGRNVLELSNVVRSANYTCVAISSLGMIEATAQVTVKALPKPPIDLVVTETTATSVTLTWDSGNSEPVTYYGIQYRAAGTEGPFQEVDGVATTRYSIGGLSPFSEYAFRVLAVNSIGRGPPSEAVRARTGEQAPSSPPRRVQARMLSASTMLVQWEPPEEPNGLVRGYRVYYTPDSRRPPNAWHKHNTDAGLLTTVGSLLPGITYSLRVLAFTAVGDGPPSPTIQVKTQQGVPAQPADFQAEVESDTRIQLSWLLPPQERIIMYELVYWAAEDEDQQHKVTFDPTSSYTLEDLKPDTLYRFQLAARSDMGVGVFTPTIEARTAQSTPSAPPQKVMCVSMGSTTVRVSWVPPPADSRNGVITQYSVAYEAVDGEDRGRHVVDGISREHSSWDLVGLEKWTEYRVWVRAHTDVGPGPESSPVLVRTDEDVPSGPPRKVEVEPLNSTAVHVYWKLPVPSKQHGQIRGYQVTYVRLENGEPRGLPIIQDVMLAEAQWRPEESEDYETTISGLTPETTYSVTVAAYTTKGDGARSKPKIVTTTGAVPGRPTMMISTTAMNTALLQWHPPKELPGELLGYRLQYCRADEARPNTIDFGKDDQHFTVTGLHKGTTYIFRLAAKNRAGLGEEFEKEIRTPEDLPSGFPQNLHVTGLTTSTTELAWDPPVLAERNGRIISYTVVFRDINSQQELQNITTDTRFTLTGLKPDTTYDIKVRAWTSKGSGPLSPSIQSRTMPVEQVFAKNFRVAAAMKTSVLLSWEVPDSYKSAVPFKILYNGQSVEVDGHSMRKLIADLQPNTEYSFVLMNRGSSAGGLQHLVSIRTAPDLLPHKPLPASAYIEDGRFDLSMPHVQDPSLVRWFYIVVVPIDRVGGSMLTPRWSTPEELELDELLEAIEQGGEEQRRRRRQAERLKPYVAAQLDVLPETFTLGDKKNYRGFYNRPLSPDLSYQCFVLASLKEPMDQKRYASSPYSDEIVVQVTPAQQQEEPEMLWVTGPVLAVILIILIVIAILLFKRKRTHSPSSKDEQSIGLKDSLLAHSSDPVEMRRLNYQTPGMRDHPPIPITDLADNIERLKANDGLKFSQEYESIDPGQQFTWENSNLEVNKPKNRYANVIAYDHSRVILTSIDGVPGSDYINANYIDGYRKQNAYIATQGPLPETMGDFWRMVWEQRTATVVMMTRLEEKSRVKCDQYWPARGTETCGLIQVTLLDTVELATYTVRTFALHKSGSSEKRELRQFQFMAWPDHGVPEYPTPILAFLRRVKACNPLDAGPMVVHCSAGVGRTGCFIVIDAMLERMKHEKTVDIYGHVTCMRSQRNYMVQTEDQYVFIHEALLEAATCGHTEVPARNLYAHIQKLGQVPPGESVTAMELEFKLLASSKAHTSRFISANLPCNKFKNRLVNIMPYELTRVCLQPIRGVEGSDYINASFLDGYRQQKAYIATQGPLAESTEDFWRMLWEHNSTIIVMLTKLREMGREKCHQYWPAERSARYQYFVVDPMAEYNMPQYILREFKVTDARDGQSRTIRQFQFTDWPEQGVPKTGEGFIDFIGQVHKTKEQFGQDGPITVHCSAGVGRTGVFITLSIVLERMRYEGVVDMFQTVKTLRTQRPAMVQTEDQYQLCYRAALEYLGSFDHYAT

Compound | IC50
CCCCCCCCCCCCCCCCCC(=O)c1cc(C(=O)Nc2ccsc2C(=O)O)[nH]n1 | Not Active
CCCCCCCCCCCCCCCCCC(=O)c1cc(C(=O)Nc2ccccc2C(=O)O)[nH]n1 | Not Active
CCCCCCCCCCCCCCCCCC(=O)c1cc(C(=O)Nc2ccccc2C(=O)OC)[nH]n1 | Not Active
CCCCCCCCCCCCCCCCCC(=O)c1cc(C(=O)Nc2ccsc2C(=O)OC)[nH]n1 | Not Active
CCOC(=O)c1n[nH]c2c1C(=O)N(c1ccc([N+](=O)[O-])cc1)C2=O | Not Active
CCCCCCCCCCCCCCCCCC(=O)c1n[nH]c2c1C(=O)N(c1ccccc1)C2=O | Not Active

Target: T1, Tyrosine-protein phosphatase non-receptor type 11 (Homo sapiens, UniProt Q06124)
T1 sequence (Q06124 whole entry): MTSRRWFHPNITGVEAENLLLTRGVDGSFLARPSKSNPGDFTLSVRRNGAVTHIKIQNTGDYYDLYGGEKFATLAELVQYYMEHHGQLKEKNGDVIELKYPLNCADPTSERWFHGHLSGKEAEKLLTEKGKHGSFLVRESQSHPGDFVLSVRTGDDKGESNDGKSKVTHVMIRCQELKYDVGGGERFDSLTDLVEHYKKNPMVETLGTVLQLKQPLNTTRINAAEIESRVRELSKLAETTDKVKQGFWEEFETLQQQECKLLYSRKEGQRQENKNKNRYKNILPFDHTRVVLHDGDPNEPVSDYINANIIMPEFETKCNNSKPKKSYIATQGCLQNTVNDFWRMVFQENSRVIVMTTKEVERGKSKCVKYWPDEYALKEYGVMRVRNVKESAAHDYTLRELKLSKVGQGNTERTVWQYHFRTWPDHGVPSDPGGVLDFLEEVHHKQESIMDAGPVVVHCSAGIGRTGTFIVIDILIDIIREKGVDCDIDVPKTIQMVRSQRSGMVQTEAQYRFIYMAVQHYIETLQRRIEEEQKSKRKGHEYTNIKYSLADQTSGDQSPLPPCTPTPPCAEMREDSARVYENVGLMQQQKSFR
Test: Inhibition of SHP2
Details: not given

Compound | IC50
CCCCCCCCCCCCCCCCCC(=O)c1cc(C(=O)Nc2ccccc2C(=O)OC)[nH]n1 | Not Active
CCCCCCCCCCCCCCCCCC(=O)c1cc(C(=O)Nc2ccsc2C(=O)OC)[nH]n1 | Not Active
CCOC(=O)c1n[nH]c2c1C(=O)N(c1ccc([N+](=O)[O-])cc1)C2=O | Not Active

Same assay, conditions: read-out: IC50

Compound | IC50 [nM]
CCCCCCCCCCCCCCCCCC(=O)c1cc(C(=O)Nc2ccsc2C(=O)O)[nH]n1 | 12200
CCCCCCCCCCCCCCCCCC(=O)c1cc(C(=O)Nc2ccccc2C(=O)O)[nH]n1 | 15200
CCCCCCCCCCCCCCCCCC(=O)c1n[nH]c2c1C(=O)N(c1ccccc1)C2=O | 9590

Target: T2, Tyrosine-protein phosphatase non-receptor type 2 (Homo sapiens, UniProt P17706)
T2 sequence (P17706 whole entry): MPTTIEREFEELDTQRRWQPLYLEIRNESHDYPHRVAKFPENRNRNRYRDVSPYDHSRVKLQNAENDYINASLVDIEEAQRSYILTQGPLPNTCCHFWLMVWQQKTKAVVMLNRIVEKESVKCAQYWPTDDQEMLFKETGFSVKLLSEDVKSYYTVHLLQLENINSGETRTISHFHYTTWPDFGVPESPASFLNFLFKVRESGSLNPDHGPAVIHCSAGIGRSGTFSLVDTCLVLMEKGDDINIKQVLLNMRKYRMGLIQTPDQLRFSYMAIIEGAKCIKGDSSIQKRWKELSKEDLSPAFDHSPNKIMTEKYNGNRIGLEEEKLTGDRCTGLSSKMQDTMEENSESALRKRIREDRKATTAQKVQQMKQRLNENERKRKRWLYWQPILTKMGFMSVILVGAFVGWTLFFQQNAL
Test: Inhibition of TCPTP
Details: not given

Compound | IC50
CCOC(=O)c1n[nH]c2c1C(=O)N(c1ccc([N+](=O)[O-])cc1)C2=O | Not Active

Same assay, conditions: read-out: IC50

Compound | IC50 [nM]
CCCCCCCCCCCCCCCCCC(=O)c1cc(C(=O)Nc2ccsc2C(=O)O)[nH]n1 | 1160
CCCCCCCCCCCCCCCCCC(=O)c1cc(C(=O)Nc2ccccc2C(=O)O)[nH]n1 | 1300
CCCCCCCCCCCCCCCCCC(=O)c1cc(C(=O)Nc2ccccc2C(=O)OC)[nH]n1 | 18700
CCCCCCCCCCCCCCCCCC(=O)c1cc(C(=O)Nc2ccsc2C(=O)OC)[nH]n1 | 18600
CCCCCCCCCCCCCCCCCC(=O)c1n[nH]c2c1C(=O)N(c1ccccc1)C2=O | 3310

Target: Tyrosine-protein phosphatase non-receptor type 6 (Homo sapiens, UniProt P29350)
Test: Inhibition of SHP1
Details: not given

Tyrosine-protein phosphatase non-receptor type 6, sequence (P29350 whole entry): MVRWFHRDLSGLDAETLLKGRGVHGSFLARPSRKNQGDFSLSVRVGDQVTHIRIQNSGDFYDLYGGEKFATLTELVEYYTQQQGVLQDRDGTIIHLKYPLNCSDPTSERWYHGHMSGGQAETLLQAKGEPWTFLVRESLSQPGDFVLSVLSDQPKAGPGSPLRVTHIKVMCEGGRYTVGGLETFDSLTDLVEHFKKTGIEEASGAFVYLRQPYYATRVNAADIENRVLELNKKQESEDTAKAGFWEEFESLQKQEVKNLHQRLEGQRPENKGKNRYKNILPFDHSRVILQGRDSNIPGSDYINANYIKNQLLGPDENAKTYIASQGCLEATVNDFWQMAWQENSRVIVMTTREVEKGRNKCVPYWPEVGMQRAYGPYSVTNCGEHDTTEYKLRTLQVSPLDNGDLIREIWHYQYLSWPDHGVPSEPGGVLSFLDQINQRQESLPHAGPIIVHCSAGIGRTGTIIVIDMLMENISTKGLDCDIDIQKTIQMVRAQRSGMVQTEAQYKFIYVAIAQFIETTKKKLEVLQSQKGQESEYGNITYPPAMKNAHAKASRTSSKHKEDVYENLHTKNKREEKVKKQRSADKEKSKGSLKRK

Compound | IC50
CCCCCCCCCCCCCCCCCC(=O)c1cc(C(=O)Nc2ccccc2C(=O)OC)[nH]n1 | Not Active
CCCCCCCCCCCCCCCCCC(=O)c1cc(C(=O)Nc2ccsc2C(=O)OC)[nH]n1 | Not Active
CCOC(=O)c1n[nH]c2c1C(=O)N(c1ccc([N+](=O)[O-])cc1)C2=O | Not Active
CCCCCCCCCCCCCCCCCC(=O)c1n[nH]c2c1C(=O)N(c1ccccc1)C2=O | Not Active

Same assay, conditions: read-out: IC50

Compound | IC50 [nM]
CCCCCCCCCCCCCCCCCC(=O)c1cc(C(=O)Nc2ccsc2C(=O)O)[nH]n1 | 9790
CCCCCCCCCCCCCCCCCC(=O)c1cc(C(=O)Nc2ccccc2C(=O)O)[nH]n1 | 10600

Target: T3, M-phase inducer phosphatase 2 (Homo sapiens, UniProt P30305)
T3 sequence (P30305 whole entry): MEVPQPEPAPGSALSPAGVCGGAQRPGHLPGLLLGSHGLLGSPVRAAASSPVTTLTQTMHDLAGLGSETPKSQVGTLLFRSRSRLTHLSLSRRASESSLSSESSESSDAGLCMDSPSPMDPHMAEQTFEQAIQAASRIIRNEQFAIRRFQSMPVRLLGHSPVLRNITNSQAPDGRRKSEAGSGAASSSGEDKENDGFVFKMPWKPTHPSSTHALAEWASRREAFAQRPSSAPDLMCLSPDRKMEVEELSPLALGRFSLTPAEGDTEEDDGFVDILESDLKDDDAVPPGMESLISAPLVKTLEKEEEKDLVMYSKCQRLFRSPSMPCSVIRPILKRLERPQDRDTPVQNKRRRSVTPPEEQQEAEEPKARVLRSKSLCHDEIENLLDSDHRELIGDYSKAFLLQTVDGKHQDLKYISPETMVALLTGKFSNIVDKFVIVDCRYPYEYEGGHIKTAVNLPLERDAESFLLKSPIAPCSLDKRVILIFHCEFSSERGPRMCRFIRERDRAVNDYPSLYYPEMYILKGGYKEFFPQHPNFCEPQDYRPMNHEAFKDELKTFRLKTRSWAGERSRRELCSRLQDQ
Test: Inhibition of CDC25B
Details: not given

Compound | IC50
O=C(c1ccccc1)c1n[nH]c2c1C(=O)N(c1ccc([N+](=O)[O-])cc1)C2=O | Not Active
CCOC(=O)c1n[nH]c2c1C(=O)N(c1cccc(F)c1)C2=O | Not Active
CCOC(=O)c1n[nH]c2c1C(=O)N(c1ccccc1Br)C2=O | Not Active
CCOC(=O)c1n[nH]c2c1C(=O)N(c1ccccc1OC)C2=O | Not Active
CCOC(=O)c1n[nH]c2c1C(=O)N(c1ccc(OC)cc1)C2=O | Not Active
CCOC(=O)c1n[nH]c2c1C(=O)N(c1ccccc1F)C2=O | Not Active
CCOC(=O)c1n[nH]c2c1C(=O)N(c1ccc(F)cc1)C2=O | Not Active
CCOC(=O)c1n[nH]c2c1C(=O)N(c1cccc(Cl)c1)C2=O | Not Active
CCOC(=O)c1n[nH]c2c1C(=O)N(c1ccccc1Cl)C2=O | Not Active
CCOC(=O)c1n[nH]c2c1C(=O)N(c1ccccc1C(=O)OC)C2=O | Not Active
CCOC(=O)c1n[nH]c2c1C(=O)N(c1cccc(Br)c1)C2=O | Not Active
CCOC(=O)c1n[nH]c2c1C(=O)N(c1cccc([N+](=O)[O-])c1)C2=O | Not Active

Same assay, conditions: read-out: IC50

Compound | IC50 [nM]
CCCCCCCCCCCCCCCCCC(=O)c1n[nH]c2c1C(=O)N(c1cccc(Cl)c1)C2=O | 240
CCCCCCCCCCCCCCCCCC(=O)c1n[nH]c2c1C(=O)N(c1cccc(Br)c1)C2=O | 1010
CCCCCCCCCCCCCCCCCC(=O)c1n[nH]c2c1C(=O)N(c1ccc([N+](=O)[O-])cc1)C2=O | 400
CCCCCCCCCCCCCCCCCC(=O)c1cc(C(=O)Nc2ccsc2C(=O)O)[nH]n1 | 120
CCCCCCCCCCCCCCCCCC(=O)c1n[nH]c2c1C(=O)N(c1ccccc1F)C2=O | 450
CCCCCCCCCCCCCCCCCC(=O)c1n[nH]c2c1C(=O)N(c1ccccc1C)C2=O | 2130
CCCCCCCCCCCCCCCCCC(=O)c1n[nH]c2c1C(=O)N(C1CCCCC1)C2=O | 2920
CCCCCCCCCCCCCCCCCC(=O)c1cc(C(=O)Nc2ccccc2C(=O)O)[nH]n1 | 160
CCCCCCCCCCCCCC(=O)c1n[nH]c2c1C(=O)N(c1ccc([N+](=O)[O-])cc1)C2=O | 500
CCCCCCCCCCCCCCCCCC(=O)c1cc(C(=O)Nc2ccccc2C(=O)OC)[nH]n1 | 5080
CCCCCCCCCCCCCCCCCC(=O)c1n[nH]c2c1C(=O)N(c1cccc3ccccc13)C2=O | 310
CCCCCCCCCCCCCCCCCC(=O)c1n[nH]c2c1C(=O)N(c1cccc(C)c1)C2=O | 2600
CCCCCCCCCCCCCCCCCC(=O)c1n[nH]c2c1C(=O)N(c1ccc(OC)cc1)C2=O | 540
CCCCCCCCCCCCCCCCCC(=O)c1n[nH]c2c1C(=O)N(c1ccc(C)cc1)C2=O | 4330
CCCCCCCCCCCCCCCCCC(=O)c1n[nH]c2c1C(=O)N(Cc1ccccc1)C2=O | 730
CCCCCCCCCCCCCCCCCC(=O)c1n[nH]c2c1C(=O)N(c1ccccc1C(=O)OC)C2=O | 410
CCCCCCCCCCCCCCCCCC(=O)c1nn(C)c2c1C(=O)N(c1ccccc1)C2=O | 30000

Compound | IC50 [nM]
CCCCCCCCCCCCCCCCCC(=O)c1n[nH]c2c1C(=O)N(c1ccc(F)c(Cl)c1)C2=O | 1150
CCCCCCCCCCCCCCCCCC(=O)c1n[nH]c2c1C(=O)N(c1cccc(OC)c1)C2=O | 520
CCCCCCCCCCCCCCCCCC(=O)c1n[nH]c2c1C(=O)N(c1cccc(F)c1)C2=O | 1470
CCCCCCCCCCCCCCCCCC(=O)c1n[nH]c2c1C(=O)N(c1ccc(Br)cc1)C2=O | 960
CCCCCCCCCCCCCCCCCC(=O)c1cc(C(=O)Nc2ccsc2C(=O)OC)[nH]n1 | 3360
CCOC(=O)c1n[nH]c2c1C(=O)N(c1ccc([N+](=O)[O-])cc1)C2=O | 31900
CCCCCCCCCCCCCCCCCC(=O)c1n[nH]c2c1C(=O)N(c1ccccc1C(F)(F)F)C2=O | 320
CCCCCCCCCCCCCCCCCC(=O)c1n[nH]c2c1C(=O)N(c1ccccc1Br)C2=O | 250
CCCCCCCCCCCCCCCCCC(=O)c1n[nH]c2c1C(=O)N(c1ccc(C(=O)OC)cc1)C2=O | 490
CCCCCCCCCCCCCCCCCC(=O)c1n[nH]c2c1C(=O)N(c1ccc(Cl)cc1)C2=O | 170
CCOC(=O)c1n[nH]c2c1C(=O)N(c1ccc(Cl)cc1)C2=O | 37400
CCCCCCCCCCCCCCCCCC(=O)c1n[nH]c2c1C(=O)N(c1ccsc1C(=O)OC)C2=O | 340
CCCCCCCCCCCCCCCCCC(=O)c1n[nH]c2c1C(=O)N(c1ccc(F)cc1)C2=O | 540
CCCCCCCCCCCCCCCCCC(=O)c1n[nH]c2c1C(=O)N(c1ccccc1)C2=O | 230
CCCCCCCCCCCCCCCCCC(=O)c1n[nH]c2c1C(=O)N(Cc1ccc(F)cc1)C2=O | 2080
CCCCCCCCCCCCCCCCCC(=O)c1n[nH]c2c1C(=O)N(c1cccc([N+](=O)[O-])c1)C2=O | 1110
CCCCCCCCCC(=O)c1n[nH]c2c1C(=O)N(c1ccc([N+](=O)[O-])cc1)C2=O | 1390

Target: T4, Tyrosine-protein phosphatase non-receptor type 1 (Homo sapiens, UniProt P18031)
T4 sequence (P18031 whole entry): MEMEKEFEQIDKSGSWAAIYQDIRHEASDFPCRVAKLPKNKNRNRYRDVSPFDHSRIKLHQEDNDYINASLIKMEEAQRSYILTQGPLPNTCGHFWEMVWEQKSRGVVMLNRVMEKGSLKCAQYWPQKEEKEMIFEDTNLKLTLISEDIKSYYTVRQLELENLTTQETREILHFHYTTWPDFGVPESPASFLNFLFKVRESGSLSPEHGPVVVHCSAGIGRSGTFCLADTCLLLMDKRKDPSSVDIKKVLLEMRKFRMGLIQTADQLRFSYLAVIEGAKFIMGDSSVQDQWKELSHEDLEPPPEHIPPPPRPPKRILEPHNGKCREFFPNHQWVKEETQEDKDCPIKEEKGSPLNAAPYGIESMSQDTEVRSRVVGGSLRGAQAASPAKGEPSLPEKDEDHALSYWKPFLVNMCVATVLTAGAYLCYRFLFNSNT
Test: Inhibition of PTP1B
Details: not given

Compound | IC50
CCOC(=O)c1n[nH]c2c1C(=O)N(c1ccc([N+](=O)[O-])cc1)C2=O | Not Active

Same assay, conditions: read-out: IC50

Compound | IC50 [nM]
CCCCCCCCCCCCCCCCCC(=O)c1cc(C(=O)Nc2ccsc2C(=O)O)[nH]n1 | 410
CCCCCCCCCCCCCCCCCC(=O)c1cc(C(=O)Nc2ccccc2C(=O)O)[nH]n1 | 350
CCCCCCCCCCCCCCCCCC(=O)c1cc(C(=O)Nc2ccccc2C(=O)OC)[nH]n1 | 7490
CCCCCCCCCCCCCCCCCC(=O)c1cc(C(=O)Nc2ccsc2C(=O)OC)[nH]n1 | 7160
CCCCCCCCCCCCCCCCCC(=O)c1n[nH]c2c1C(=O)N(c1ccccc1)C2=O | 1560

— ChEMBL document CHEMBL1157928, “Discovery and structural optimization of pyrazole derivatives as novel inhibitors of Cdc25B” (Bioorg Med Chem Lett, 2010)
